1 compound from US12590105B2, “KRas G12C inhibitors” (Eli Lilly and Company, priority 2020, dated 2026) can be followed below.

The target of experiment [1] is T1, constitutive RAS GTPase activity in H358 cells (Homo sapiens, UniProt P01116, G12C).
T1 construct: host or cells: H358 human lung cancer cells
In words: H358 Cellular Active RAS GTPase ELISA. Type of experiment: cell-based. Particulars: H358 human lung cancer cells, serum free media, 2 hours incubation; read-out: relative IC50, inhibition of constitutive RAS GTPase activity. From the text: The purpose of this assay is to measure the ability of test compounds to inhibit constitutive RAS GTPase activity in human lung cancer cells H358 (ATCC CRL-5807). The RAS GTPase ELISA kit (Active Motif Cat #52097) contains a 96-well plate pre-coated with glutathione in order to capture a kit-supplied GST-Raf-RBD protein. Activated RAS (GTP-bound) in cell extracts specifically bind to the Raf-RBD. Bound RAS is detected with a primary antibody that recognizes human KRas. A secondary antibody conjugated with HRP recognizes the primary antibody and a development solution provides a chemiluminescent readout.
H358 cells are plated at 80,000 cells/well in 90 μL serum free media (RPMI 1640, GIBCO) and incubated overnight at 37° C./5% CO2. The next morning, 10 μL of serially-diluted (3-fold) test compounds (500 μM top concentration) and 10 μL of controls (Maximum signal wells: 5% DMSO and Minimum signal wells: 500 μM 1-[4-[6-chloro-8-fluoro-7-(3-hydroxy-1-naphthyl)quinazolin-4-yl]piperazin-1-yl]prop-2-en-1-one, WO2015054572 as an inhibitor) are added to the cell plate and incubated for 2 hours at 37° C./5% CO2. Complete Lysis/Binding Buffer is prepared containing Protease Inhibitor cocktail and GST-Raf-RBD and stored on ice. […] The assay plate is then read on an EnVision™ Plate Reader (Perkin Elmer) using a luminescence program. […]
(In an ELISA, binding on a coated surface is turned into a signal by an enzyme label.)

Experiment [2] deals with phosphorylation of p-ERK1/2 in H358 cells. In words: H358 Cellular Phospho-ERK AlphaLISA. Type of experiment: cell-based. Particulars: NCI-H358; H358 human lung cancer cells, 2 hours incubation; read-out: relative IC50, inhibition of phosphorylation of p-ERK1/2. An excerpt:
The purpose of this assay is to measure the ability of test compounds to inhibit the phosphorylation of p-ERK1/2, a downstream effector of KRas in human lung cancer cells H358 (ATCC CRL-5807). Briefly, the AlphaLISA® SureFire® Ultra™ p-ERK 1/2 (Thr202/Tyr204) assay is a sandwich immunoassay for quantitative detection of phospho-ERK 1/2 (phosphorylated on Thr202/Tyr204 in ERK1, or Thr185/Tyr187 in ERK2) in cellular lysates using Alpha Technology (Perkin Elmer Cat #ALSU-PERK-A50K).
H358 cells are plated at 40K cells per well in 100 μL media (RPMI 1640, GIBCO Cat #22400-071) containing 10% FBS (GIBCO Cat #: 10082-147) in a 96 well plate (Costar #3596) and are incubated overnight in humid trays at 37° C., 5% CO2. […] The assay plate is then read on an EnVision™ Plate Reader (Perkin Elmer) using a luminescence program. […]
(Alpha assays give light when donor and acceptor beads are brought close together.)

The target of the next experiment is KRas G12C (Homo sapiens, UniProt P01116, G12C). In words: KRas G12C Probe Occupancy TR-FRET Assay. The settings on record: His-tagged KRas G12C; inhibitor incubated 5 or 60 minutes (which one applies is not stated); read-out: relative IC50, competition with KRas Probe for binding to and covalently modifying KRas G12C. An excerpt: The purpose of this assay is to measure the ability of an inhibitor to compete with a probe for binding to and covalently modifying KRas G12C at codon 12. The signal is generated by the time-resolved transfer of fluorescence between europium on an antibody bound to KRas G12C Europium-labeled Anti-Histidine Tag Antibody LanthaScreen (the Eu Anti-His antibody) and fluorescent Tracer 647 (Alexa Fluor™) bound to KRas G12C through streptavidin and a biotinylated inhibitor (the “KRas Probe”, see Preparation 59).
Inhibitors are tested in dose response format from 10 mM stocks in 100% DMSO. The Labycyte Echo® 555 is used to dilute and transfer 100 nL per well containing a 10 point, 2.8-fold serial dilution to an assay plate. Two copies of the assay plate are prepared to measure the potency after 5 and 60 minutes incubation of the inhibitor with KRas G12C. His-tagged KRas G12C (20 nM) is added to the plates in assay buffer (20 mM Tris-HCl, pH 7.5, 0.01% TX-100, and 1 mM DTT). After 5 or 60 minutes incubation, 1 μM KRas Probe is added and allowed to covalently modify free KRas G12C for 1 hour. […] After 30 minutes, the fluorescent signal is read on an Envision™ Plate Reader (excitation at 340 nm, tracer emission (em) at […], and antibody emission at 615 nm). […]
On the technique in general: TR-FRET usually uses a lanthanide donor and a delayed reading to cut background.

T1 sequence (P01116 1-188 isoform P01116-2 G12C): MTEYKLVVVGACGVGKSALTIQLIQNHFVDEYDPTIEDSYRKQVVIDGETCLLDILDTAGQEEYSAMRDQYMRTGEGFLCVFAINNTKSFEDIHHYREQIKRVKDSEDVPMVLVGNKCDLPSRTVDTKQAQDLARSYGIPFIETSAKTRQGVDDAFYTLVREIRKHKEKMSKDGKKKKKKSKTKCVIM
KRas G12C, sequence (P01116 1-188 isoform P01116-2 G12C): as above

On to `C=CC(=O)N1CCN2C(=O)c3cc(Cl)c(-c4ccc(F)c5sccc45)c(Cl)c3OCC[C@H]2C1` (single isomer, unassigned) [Example 2], for which the IC50 in experiment [1] was 326 nM; in experiment [2], 89 nM; on KRas G12C, 34 nM.
